{"source": "patent EP3409761B1", "about": "“CULTURE MEDIUM COMPOSITION, AND METHOD FOR CULTURING CELL OR TISSUE USING SAID COMPOSITION” (Nissan Chemical Corporation, priority 2012, dated 2014)", "type_in_all_cases": "cell-based", "key": {"[1]": {"system": "human cervical cancer cell line HeLa", "assay": "Comparison with single layer culture method using agent for inducing apoptosis", "conditions": "day 4", "protocol": "This aqueous solution was sterilized at 121°C for 20 min in an autoclave. […] Each plate was cultured by being stood still in a CO2 incubator (37°C, 5% CO2). […] To the culture medium on day 4 was added an ATP reagent (150 µL) (CellTiter-Glo (registered trade mark) Luminescent Cell Viability Assay, manufactured by Promega) to give a suspension, which was stood for about 10 min at room temperature, and the luminescence intensity (RLU value) was measured by FlexStation3 (manufactured by Molecular Devices), and the number of viable cells was measured by subtracting the luminescence value of the medium alone. For WST-8 measurement, a WST-8 solution (manufactured by DOJINDO Laboratories, 15 µL) was added, the mixture was incubated at 37°C for 100 min, the absorbance at 450 nm was measured by an absorbance spectrometer (manufactured by Molecular Devices, SPECTRA MAX 190), and the number of viable cells was measured by subtracting the absorbance of the medium alone."}, "[2]": {"system": "human cervical cancer cell line HeLa", "assay": "Comparison with single layer culture method in cell proliferation test using anticancer drug", "conditions": "day 4", "protocol": "This aqueous solution was sterilized at 121°C for 20 min in an autoclave. […] Each plate was cultured by being stood still in a CO2 incubator (37°C, 5% CO2). […] The anticancer drug used was Adriamycin (manufactured by WAKO), Paclitaxel (manufactured by WAKO) or Mitomycin C (manufactured by WAKO). To the culture medium on day 4 was added an ATP reagent (150 µL) (CellTiter-Glo (registered trade mark) Luminescent Cell Viability Assay, manufactured by Promega) to give a suspension, which was stood for about 10 min at room temperature, and the luminescence intensity (RLU value) was measured by FlexStation3 (manufactured by Molecular Devices), and the number of viable cells was measured by subtracting the luminescence value of the medium alone. For WST-8 measurement, a WST-8 solution (manufactured by DOJINDO Laboratories, 15 µL) was added, the mixture was incubated at 37°C for 100 min, the absorbance at 450 nm was measured by an absorbance spectrometer (manufactured by Molecular Devices, SPECTRA MAX 190), and the number of viable cells was measured by subtracting the absorbance of the medium alone."}, "[3]": {"system": "human cervical cancer cell line HeLa", "assay": "Cell proliferation test using various anticancer drugs", "conditions": "DAG 0.030% medium; for cell density: 5 days later", "protocol": "This aqueous solution was sterilized at 121°C for 20 min in an autoclave. […] The anticancer drug used was Adriamycin (manufactured by WAKO), Paclitaxel (manufactured by WAKO) or Mitomycin C (manufactured by WAKO).\nSuccessively, this plate was cultured by being stood still in a CO2 incubator (37°C, 5% CO2) for 7 days. After culturing for 3, 5, 7 days, to the culture medium was added a WST-8 solution (manufactured by DOJINDO Laboratories, 20 µL), and the mixture was incubated at 37°C for 100 min. The absorbance at 450 nm was measured by an absorbance spectrometer (manufactured by Molecular Devices, SPECTRA MAX 190), and the number of viable cells was measured by subtracting the absorbance of the medium alone. The culture medium containing the cells after 5 days of culture was stirred with a pipette and the obtained stirred solution (20 µL) was mixed with Trypan Blue stain 0.4% (manufactured by Invitrogen, 20 µL) and the cell density was measured under a microscope."}, "[4]": {"conditions": "agent 1 µM, deacylated gellan gum addition group (0.015%)"}, "[5]": {"conditions": "agent 1 µM, single layer culture group"}, "[6]": {"conditions": "agent 10 µM, deacylated gellan gum addition group (0.015%)"}, "[7]": {"conditions": "agent 10 µM, single layer culture group"}, "[8]": {"conditions": "drug 0.001 µM, deacylated gellan gum addition group (0.015%)"}, "[9]": {"conditions": "drug 0.001 µM, single layer culture group"}, "[10]": {"conditions": "drug 0.01 µM, deacylated gellan gum addition group (0.015%)"}, "[11]": {"conditions": "drug 0.01 µM, single layer culture group"}, "[12]": {"conditions": "drug 0.1 µM, deacylated gellan gum addition group (0.015%)"}, "[13]": {"conditions": "drug 0.1 µM, single layer culture group"}, "[14]": {"conditions": "drug 1 µM, deacylated gellan gum addition group (0.015%)"}, "[15]": {"conditions": "drug 1 µM, single layer culture group"}, "[16]": {"conditions": "agent 0.2 µM, deacylated gellan gum addition group (0.015%)"}, "[17]": {"conditions": "agent 0.2 µM, single layer culture group"}, "[18]": {"conditions": "agent 2 µM, deacylated gellan gum addition group (0.015%)"}, "[19]": {"conditions": "agent 2 µM, single layer culture group"}}, "note": "Starred links: 1 amine or outer side, 2 acyl side, 3 side chain; linkers in the order of their positions; H or OH if unused. Positions of bridges follow the written chain, without caps; N, C: chain ends. Non-standard residues stand in square brackets, D forms with d. Residues, ends and D or L forms follow the SMILES beside them. Chains are numbered I, II in the order given. Actinocin(9to1) = Cc1c2oc3c(C)ccc(C(=O)[*:1])c3nc-2c(C(=O)[*:2])c(N)c1=O; NMeV = CN[C@H](C(=O)O)C(C)C; Sar = CNCC(=O)O"}
{"smiles": "Cc1c2oc3c(C)ccc(C(=O)N[C@@H]4C(=O)N[C@H](C(C)C)C(=O)N5CCC[C@H]5C(=O)N(C)CC(=O)N(C)[C@@H](C(C)C)C(=O)O[C@@H]4C)c3nc-2c(C(=O)N[C@@H]2C(=O)N[C@H](C(C)C)C(=O)N3CCC[C@H]3C(=O)N(C)CC(=O)N(C)[C@@H](C(C)C)C(=O)O[C@@H]2C)c(N)c1=O", "note": "[Actinomycin D] (I: T[dV]P[Sar][NMeV] / II: T[dV]P[Sar][NMeV]; ester I:1-I:C, II:1-II:C; linker I:N-II:N via Actinocin(9to1))", "values": [{"measurement": "% Control value of the RLU value (ATP measurement)", "setting": "[1]; [4]", "value": 4, "unit": "% Control"}, {"measurement": "% Control value of the absorbance at 450 nm (WST-8 measurement)", "setting": "[1]; [4]", "value": 3, "unit": "% Control"}, {"measurement": "% Control value of the RLU value (ATP measurement)", "setting": "[1]; [5]", "value": 2, "unit": "% Control"}, {"measurement": "% Control value of the absorbance at 450 nm (WST-8 measurement)", "setting": "[1]; [5]", "value": 2, "unit": "% Control"}, {"measurement": "% Control value of the RLU value (ATP measurement)", "setting": "[1]; [6]", "value": 6, "unit": "% Control"}, {"measurement": "% Control value of the absorbance at 450 nm (WST-8 measurement)", "setting": "[1]; [6]", "value": 12, "unit": "% Control"}, {"measurement": "% Control value of the RLU value (ATP measurement)", "setting": "[1]; [7]", "value": 2, "unit": "% Control"}, {"measurement": "% Control value of the absorbance at 450 nm (WST-8 measurement)", "setting": "[1]; [7]", "value": 4, "unit": "% Control"}]}
{"smiles": "COc1cccc2c1C(=O)c1c(O)c3c(c(O)c1C2=O)C[C@@](O)(C(=O)CO)C[C@@H]3O[C@H]1C[C@H](N)[C@H](O)[C@H](C)O1", "note": "[Adriamycin]", "values": [{"measurement": "% Control value of the RLU value (ATP measurement)", "setting": "[1]; [4]", "value": 5, "unit": "% Control"}, {"measurement": "% Control value of the absorbance at 450 nm (WST-8 measurement)", "setting": "[1]; [4]", "value": 3, "unit": "% Control"}, {"measurement": "% Control value of the RLU value (ATP measurement)", "setting": "[1]; [5]", "value": 3, "unit": "% Control"}, {"measurement": "% Control value of the absorbance at 450 nm (WST-8 measurement)", "setting": "[1]; [5]", "value": 3, "unit": "% Control"}, {"measurement": "% Control value of the RLU value (ATP measurement)", "setting": "[2]; [8]", "value": 96, "unit": "% Control"}, {"measurement": "% Control value of the absorbance at 450 nm (WST-8 measurement)", "setting": "[2]; [8]", "value": 105, "unit": "% Control"}, {"measurement": "% Control value of the RLU value (ATP measurement)", "setting": "[2]; [9]", "value": 97, "unit": "% Control"}, {"measurement": "% Control value of the absorbance at 450 nm (WST-8 measurement)", "setting": "[2]; [9]", "value": 109, "unit": "% Control"}, {"measurement": "% Control value of the RLU value (ATP measurement)", "setting": "[2]; [10]", "value": 81, "unit": "% Control"}, {"measurement": "% Control value of the absorbance at 450 nm (WST-8 measurement)", "setting": "[2]; [10]", "value": 86, "unit": "% Control"}, {"measurement": "% Control value of the RLU value (ATP measurement)", "setting": "[2]; [11]", "value": 97, "unit": "% Control"}, {"measurement": "% Control value of the absorbance at 450 nm (WST-8 measurement)", "setting": "[2]; [11]", "value": 107, "unit": "% Control"}, {"measurement": "% Control value of the RLU value (ATP measurement)", "setting": "[2]; [12]", "value": 41, "unit": "% Control"}, {"measurement": "% Control value of the absorbance at 450 nm (WST-8 measurement)", "setting": "[2]; [12]", "value": 36, "unit": "% Control"}, {"measurement": "% Control value of the RLU value (ATP measurement)", "setting": "[2]; [13]", "value": 65, "unit": "% Control"}, {"measurement": "% Control value of the absorbance at 450 nm (WST-8 measurement)", "setting": "[2]; [13]", "value": 74, "unit": "% Control"}, {"measurement": "% Control value of the RLU value (ATP measurement)", "setting": "[2]; [14]", "value": 15, "unit": "% Control"}, {"measurement": "% Control value of the absorbance at 450 nm (WST-8 measurement)", "setting": "[2]; [14]", "value": 4, "unit": "% Control"}, {"measurement": "% Control value of the RLU value (ATP measurement)", "setting": "[2]; [15]", "value": 5, "unit": "% Control"}, {"measurement": "% Control value of the absorbance at 450 nm (WST-8 measurement)", "setting": "[2]; [15]", "value": 6, "unit": "% Control"}, {"measurement": "cell density", "setting": "[3]; drug 0.001 µM", "value": "5.1 10^4 cells/mL"}, {"measurement": "cell number (absorbance at 450 nm, WST-8)", "setting": "[3]; drug 0.001 µM, day 3", "value": 0.237}, {"measurement": "cell number (absorbance at 450 nm, WST-8)", "setting": "[3]; drug 0.001 µM, day 5", "value": 0.246}, {"measurement": "cell number (absorbance at 450 nm, WST-8)", "setting": "[3]; drug 0.001 µM, day 7", "value": 0.184}, {"measurement": "cell density", "setting": "[3]; drug 0.01 µM", "value": "2.6 10^4 cells/mL"}, {"measurement": "cell number (absorbance at 450 nm, WST-8)", "setting": "[3]; drug 0.01 µM, day 3", "value": 0.230}, {"measurement": "cell number (absorbance at 450 nm, WST-8)", "setting": "[3]; drug 0.01 µM, day 5", "value": 0.098}, {"measurement": "cell number (absorbance at 450 nm, WST-8)", "setting": "[3]; drug 0.01 µM, day 7", "value": 0.068}, {"measurement": "cell density", "setting": "[3]; drug 0.1 µM", "value": "1.7 10^4 cells/mL"}, {"measurement": "cell number (absorbance at 450 nm, WST-8)", "setting": "[3]; drug 0.1 µM, day 3", "value": 0.037}, {"measurement": "cell number (absorbance at 450 nm, WST-8)", "setting": "[3]; drug 0.1 µM, day 5", "value": 0.005}, {"measurement": "cell number (absorbance at 450 nm, WST-8)", "setting": "[3]; drug 0.1 µM, day 7", "value": "< 0"}, {"measurement": "cell density", "setting": "[3]; drug 1 µM", "value": "0.6 10^4 cells/mL"}, {"measurement": "cell number (absorbance at 450 nm, WST-8)", "setting": "[3]; drug 1 µM, day 3", "value": "< 0"}, {"measurement": "cell number (absorbance at 450 nm, WST-8)", "setting": "[3]; drug 1 µM, day 5", "value": "< 0"}, {"measurement": "cell number (absorbance at 450 nm, WST-8)", "setting": "[3]; drug 1 µM, day 7", "value": "< 0"}]}
{"smiles": "CC[C@@]1(O)C(=O)OCc2c1cc1n(c2=O)Cc2cc3ccccc3nc2-1", "note": "[Camptothecin]", "values": [{"measurement": "% Control value of the RLU value (ATP measurement)", "setting": "[1]; [16]", "value": 27, "unit": "% Control"}, {"measurement": "% Control value of the absorbance at 450 nm (WST-8 measurement)", "setting": "[1]; [16]", "value": 24, "unit": "% Control"}, {"measurement": "% Control value of the RLU value (ATP measurement)", "setting": "[1]; [17]", "value": 63, "unit": "% Control"}, {"measurement": "% Control value of the absorbance at 450 nm (WST-8 measurement)", "setting": "[1]; [17]", "value": 68, "unit": "% Control"}, {"measurement": "% Control value of the RLU value (ATP measurement)", "setting": "[1]; [18]", "value": 11, "unit": "% Control"}, {"measurement": "% Control value of the absorbance at 450 nm (WST-8 measurement)", "setting": "[1]; [18]", "value": 7, "unit": "% Control"}, {"measurement": "% Control value of the RLU value (ATP measurement)", "setting": "[1]; [19]", "value": 44, "unit": "% Control"}, {"measurement": "% Control value of the absorbance at 450 nm (WST-8 measurement)", "setting": "[1]; [19]", "value": 28, "unit": "% Control"}]}
